Experimental data: patent publication US8158560B2, “Insecticidal arylpyrroline compounds” (Bayer CropScience AG, priority 2009, dated 2012)

Legend:
Assay type in all cases: in vivo
[1] = test system: organic phosphorus agent- and carbamate agent-resistant Myzus persicae; assay: Biological Test Example 4: test against organic phosphorus agent- and carbamate agent-resistant green peach aphid (Myzus persicae), spray on eggplant; conditions: active compound concentration 100 ppm; after 7 days
Method: (§1) Unless not mentioned otherwise, the test solutions were prepared as follows:
(§2) Containing as solvent: Dimethylformamide, 3 parts by weight; and as emulsifier: Polyoxyethylene alkyl phenyl ether, 1 part by weight
(§3) To prepare the test solution, 1 part by weight of an active compound is mixed with the above-mentioned amount of solvent containing the above-mentioned amount of emulsifier, and the mixture is diluted with water to the desired concentration.
Test Against Organic Phosphorus Agent- and Carbamate Agent Resistant Green Peach Aphid (Myzus persicae)
50 to 100 head of organic phosphorous agent- and carbamate agent-resistant Myzus persicae were inoculated to leaves of eggplant at two-leaf stage, planted in a pot of 6 cm in diameter. After one day, test solution at the appropriate concentration was sprayed thereon in a sufficient amount using a spray gun. After the spraying, the plant pot was placed inside a greenhouse, and after 7 days, the insecticidal rate was calculated.
An insecticidal activity of 100% means that all aphids were killed, whereas an insecticidal activity of 0% means that no aphid was killed.

[2] = test system: Plutella xylostella 3rd instar larvae; assay: Plutella xylostella spray test (PLUTXY); conditions: PLUTMA; 0.8 ppm; 7 dat
Method: Plutella xylostella—Spray Test (PLUTXY)
Insect: Plutella xylostella 3rd instar larvae from own culture
Material: A-PET cup, A-PET lids
Plant: Broccoli 5 leaf stage
(§4) Solvent pre-mixture: Sorpol® SD: Sorpol® BDB:Dimethylformamide=3:3:14
10 mg a i. is solved with 0.05 ml solvent pre-mixture
(§5) Water for dilution contains RME and AS (1000 ppm each) or 0.1% of spreader. Solutions are diluted at the rate of 1:5 for limit concentration determination.
Procedure: Broccoli seedlings of 4-5 leaf stage planted in a vinyl pot (9 cm diameter) are sprayed with the solution. After drying half of the leaves of the plants are cut and put into a A-PET cup. Ten larvae of Plutella xylostella L3 are released in the cup and the dish is placed at 25° C. After 4 days another half leaf is cut and added to the dish. After the specified period of time mortality in % is determined according to the figures of mortality used for evaluation. • 1 larva dead: 20% Efficacy • 5 larvae dead: 100% Efficacy Adoxophyes honmai—Test (ADXPFA)

[3] = test system: Nephotettix cincticeps-MR, resistant strain, 3rd-4th instar nymphs; assay: Nephotettix cincticeps spray test (NEPHCI); conditions: 7 dat
Method: Nephotettix cincticeps-Spray Test (NEPHCl)
Insect: Nephotettix cincticeps-MR, resistant strain, 3rd-4th instar nymphs from own culture
Plant: Rice seedlings (Oryza sativa var. Tamanishiki)
Material: ST-method container (200 ml desiccant polystyrene bottle) with a hole in the bottom sealed with metal mesh. The lid has a pit inside to keep desiccant, and it is used to sow rice seeds. The bottle is used upside down as “cover”, the lid with seedling is called “base”. Plastic stand-board with magnet labels to line the ST Bases up (“Stand”)
Solvent pre-mixture: Sorpol® SD: Sorpol® BDB:Dimethylformamide=3:3:14 10 mg a i. is solved with 0.05 ml solvent pre-mixture. Water for dilution contains RME and AS (1000 ppm each) or 0.1% of spreader. Solutions are diluted at the rate of 1:5 for limit concentration determination.
Procedure: On a pit in the center of a base (originally the desiccant space) pieces of paper towel are placed. 20-30 germinated rice seeds are sown on the paper and moistened with water. The base is covered with a plastic cup and kept in an incubator at 30° C. for five days.
The base with rice seedlings is placed on the Stand. Each base is sprayed with the solution.
After drying twelve 3rd-4th instar nymphs of Nephotettix cincticeps-MR are put on the base and confined with the cover. The ST containers on the Stands are kept in the testing room at 25° C. and 50-60% r.h., 16L8D lighting conditions.
After the specified period of time mortality in % is determined by rating according to the following scheme/criteria: Counting living moving insects, calculate mortality in % by the formula: […]

Aulacophora femoralis = assay: Biological Test Example 3: test against cucurbit leaf beetle (Aulacophora femoralis), cucumber leaf dip; conditions: foliar, 168 h, active compound concentration 100 ppm, second instar larvae, after 7 days, read-out: insecticidal activity
Method: as §1, §2, §3
Test Against Cucurbit Leaf Beetle (Aulacophora femoralis)
Leaves of cucumber were immersed in the test solution at the appropriate concentration, and the leaves were dried in air. The leaves were then put in a plastic cup containing sterilized black soil and five Aulacophora femoralis at second instar larvae were released in the cup. The cups were placed in a temperature-controlled chamber at 25° C. After 7 days, the number of dead larvae was counted, and the insecticidal activity was calculated. An insecticidal activity of 100% means that all larvae were killed, whereas an insecticidal activity of 0% means that no larva was killed.

Spodoptera litura = assay: Biological Test Example 1: test against tobacco cutworm (Spodoptera litura) larvae, sweet potato leaf dip; conditions: foliar, 168 h, active compound concentration 100 ppm, third instar larvae, after 7 days, read-out: insecticidal activity
Method: as §1, §2, §3
Test Against Tobacco Cutworm (Spodoptera litura) Larvae
Leaves of sweet potato were immersed in the test solution at the appropriate concentration, and the leaves were dried in air. The leaves were then placed in a petri dish having a diameter of 9 cm, and ten Spodoptera litura at third instar larvae were released therein. The petri dishes were placed in a temperature-controlled chamber at 25° C.
After 2 days and 4 days more sweet potato leaves were added. After 7 days, the number of dead larvae was counted and the insecticidal activity was calculated. An insecticidal activity of 100% means that all larvae were killed, whereas an insecticidal activity of 0% means that no larva was killed. In the current test, the results of two petri dishes for each treatment were averaged.

[4] = test system: Bemisia tabacii biotype B; assay: Bemisia tabacii spray test (BEMIAR); conditions: 100 ppm, 14 dat, rating scheme b324
Method: Bemisia tabacii—Spray-Test (BEMIAR)
Insect: Bemisia tabacii biotype B
Plant: Tomato seedlings, 5 leaf stage in vinyl pots of 40 mm diameter
as §4
10 mg a.i. is solved with 0.05 ml solvent pre-mixture. Water for dilution contains RME and AS (1000 ppm each) or 0.1% of spreader. Solutions are diluted at the rate of 1:5 for limit concentration determination.
Procedure: Solutions are sprayed to the plants. After drying treated pots are placed in the greenhouse where breeding BEMIAR for an infection-time of 24 h. Then the plants is placed in the testing room at 25° C. and 50-60% r.h., 16L8D lighting conditions.
(§6) After the specified period of time mortality in % is determined according to the following scheme/criteria: […]

Tetranychus urticae = assay: Biological Test Example 2: test against two-spotted spider mite (Tetranychus urticae), spray on kidney bean; conditions: 168 h, active compound concentration 100 ppm, adult mites, after 7 days, read-out: acaricidal activity
Method: as §1, §2, §3
Test Against Two-Spotted Spider Mite (Tetranvchus urticae)
50 to 100 adult mites of Tetranychus urticae were inoculated to leaves of kidney bean at two-leaf stage planted in a pot of 6 cm in diameter. After one day, test solution at the appropriate concentration was sprayed thereon in a sufficient amount using a spray gun. After the spraying, the plant pot was placed inside a greenhouse, and after 7 days, the acaricidal activity was calculated. An acaricidal activity of 100% means that all mites were killed, whereas an acaricidal activity of 0% means that no mite was killed.

[5] = test system: Myzus persicae-resistant strain, mixed population; assay: Myzus persicae spray test (MYZUPE); conditions: 4 ppm, 6 dat, rating scheme
Method: Myzus persicae—Spray Test (MYZUPE)
Insect: Myzus persicae-resistant strain, mixed population
Plant: Eggplant seedling (Solanum melongena var. Senryo 2gou) 2 leaf age (4-5 weeks after sowing), transplanted into vinyl pots of 60 mm diameter
Solvent pre-mixture: Sorpol® SD: Sorpol® BDB:Dimethylformamide=3:3:14; 10 mg a.i. is solved with 0.05 ml solvent pre-mixture. Water for dilution contains RME and AS (1000 ppm each) or 0.1% of spreader. Solutions are diluted at the rate of 1:5 for limit concentration determination.
Procedure: 1 day before treatment aphids are inoculated onto the testing plants, about 50 aphids per leaf, 100 for 1 pot. A paper label is placed on each pot. Solutions are sprayed directly onto both insects and plants. After drying pots are placed in the greenhouse at 20° C.-25° C. and 50-60% relative humidity.
After the specified period of time the mortality in % is determined and the rate of death is calculated according to the following scheme/criteria: […]

[6] = test system: Aulacophora femoralis 2nd instar larvae; assay: Aulacophora femoralis spray test (AUACFE); conditions: 0.8 ppm, 6 dat, rating scheme b297
Method: Aulacophora femoralis—Spray Test (AUACFE)
Insect: Aulacophora femoralis 2nd instar larvae from own culture;
Material: PET cups with 5 ml soil and A-PET lids
Plant: Cucumber (Cucumis sativus var. Hanshiro), cotyledon stage; 1 plant per pot;
Solvent pre-mixture: Sorpol® SD: Sorpol® BDB:Dimethylformamide=3:3:14;
10 mg a.i. solved with 0.05 ml solvent pre-mixture. Water for dilution contains RME and AS (1000 ppm each) or 0.1% of spreader. Solutions are diluted at the rate of 1:5 for limit concentration determination.
Procedure: Solutions are sprayed onto a plant. After drying, plants are cut and put on the soil in the testing cup. Five larvae L2 are released into each testing cup.
The testing cup is covered with the lid and stored at 25° C. and 50-60% r.h., 16L8D lighting conditions.
After the specified period of time, the mortality in % is determined according to the following scheme/criteria: […]

Panonychus citri = Panonychus citri spray test (METTCI); conditions: 4 ppm, 7 dat, rating scheme b306
Method: Panonychus citri—Spray Test (METTCI)
Plant: Citrus plants, ca 8 cm height
as §4
(§7) 10 mg a i. is solved with 0.05 ml solvent pre-mixture.
as §5
Procedure: 1 day before treatment mites were inoculated onto potted citrus plants, about 50 adults and some nymphs for 1 pot. The test solution is sprayed directly onto both mites and plants. After drying pots are stored at 25° C.
After the specified period of time mortality in % is determined by rating according to the following scheme/criteria.

[7] = test system: Tetranychus urticae-S (sensible strain) mixed population; assay: Tetranychus urticae test (TETRUR); conditions: 0.16 ppm, 2 dat, rating scheme b334
Method: Tetranychus urticae—Test (TETRUR)
Insect: Tetranychus urticae-S (sensible strain) mixed population from own culture
Plant: Kidney bean seedlings (Phaseolus vulgaris var. Serena), 2 leaf stage (1 week after sowing)
as §4, §7, §5
Procedure: 1 day before treatment the apex parts of testing plants are pruned. Mites are inoculated onto the testing plants, about 20 adults per leaf, 40 adults and some nymphs for 1 pot. A paper label is placed on each pot. The solution is sprayed onto mites and plants. After drying pots are placed in the greenhouse, temperature 20° C.-25° C.
as §6

[8] = test system: Spodoptera litura L2 stage; assay: Spodoptera litura root soaking test (PRODLI); conditions: 20 ppm, 4 dat
Method: Spodoptera litura—Root Soaking Test (PRODLI)
Insect: Spodoptera litura L2 stage;
Material: Culture media bottles for hydroponics: Plastic (A-PET) cups for test, square type;
Plant: Broccoli 5 leaf stage (ca. 12 cm high), soil around the roots was washed off just before the test;
Solvent pre-mixture “Sorpol SD” for root soaking test;
Sorpol SD: Sorpol BDB:Dimethylformamide=3:3:140
Procedure: Test solutions are prepared in the bottles at the appropriate concentration. The test plant root is dipped into the test solution in the bottle and kept in a test room. After 3 days, ⅓ part of the leaves of the plants is cut and put into the A-PET cup.
Into each test cup five larvae L2 are released, the cup is covered with a lid and stored at 25° C. and at a relative humidity of 50-60% and under 16L8D lighting conditions.
After the specified period of time the mortality in % is determined and the rate of death is calculated.

Compound	Efficacy/day(s) of treatment [2] [%/7 dat]	Efficacy/day(s) of treatment ([3]; 100 ppm) [%/7 dat]	Efficacy/day(s) of treatment [4] [%/14 dat]	Efficacy/day(s) of treatment [5] [%/6 dat]	Efficacy/day(s) of treatment [7] [%/2 dat]	Efficacy/day(s) of treatment [8] [%/4 dat]	other results
Cc1cc(C2=NCC(c3cc(C(F)(F)F)cc(C(F)(F)F)c3)(C(F)(F)F)C2)ccc1C(=O)NC1CS(=O)(=O)C1 (stereo not drawn) [Compound 1-21, 4-{3-[3,5-Bis(trifluoromethyl)phenyl]-3-(trifluoromethyl)-3,4-dihydro-2H-pyrrol-5-yl}-N-(1,1-dioxidothietan-3-yl)-2-methylbenzamide]	100	90	98	98			insecticidal activity [1]: 100%; pest or weed control at 100 ppm (Aulacophora femoralis): 100%; pest or weed control at 100 ppm (Spodoptera litura): 100%; pest or weed control at 100 ppm (Tetranychus urticae): 100%
Cc1cc(C2=NOC(c3cc(C(F)(F)F)cc(C(F)(F)F)c3)(C(F)(F)F)C2)ccc1C(=O)NC1CS(=O)(=O)C1 (stereo not drawn) [Compound C-1, reference compound]	80	70	60	60			
Cc1cc(C2=NOC(c3cc(C(F)(F)F)cc(C(F)(F)F)c3)(C(F)(F)F)C2)ccc1C(=O)NC1CSC1 (stereo not drawn) [ExNo A21 of WO 2009/080250, reference compound]			60	60			Efficacy/day(s) of treatment ([3]; 20 ppm): 0%/7 dat; Efficacy/day(s) of treatment [6]: 50%/6 dat; Efficacy/day(s) of treatment (Panonychus citri): 0%/7 dat
Cc1cc(C2=NCC(c3cc(Cl)cc(Cl)c3)(C(F)(F)F)C2)ccc1C(=O)NC1CSC1 (stereo not drawn) [ExNo A49 of WO 2010/020522]					90	100	
Cc1cc(C2=NOC(c3cc(Cl)cc(Cl)c3)(C(F)(F)F)C2)ccc1C(=O)NC1CSC1 (stereo not drawn) [ExNo A-4 of WO 2009/080250]					60	80	
